Data: PMC7354492, “Drugs Commonly Applied to Kidney Patients May Compromise Renal Tubular Uremic Toxins Excretion” (Toxins, 2020)
Counter-ions that a name gives are not always drawn. Like-named read-outs stand apart in the source and are kept apart here.

T1: OAT1 (Homo sapiens, UniProt Q4U2R8)
T1 sequence (Q4U2R8 1-563): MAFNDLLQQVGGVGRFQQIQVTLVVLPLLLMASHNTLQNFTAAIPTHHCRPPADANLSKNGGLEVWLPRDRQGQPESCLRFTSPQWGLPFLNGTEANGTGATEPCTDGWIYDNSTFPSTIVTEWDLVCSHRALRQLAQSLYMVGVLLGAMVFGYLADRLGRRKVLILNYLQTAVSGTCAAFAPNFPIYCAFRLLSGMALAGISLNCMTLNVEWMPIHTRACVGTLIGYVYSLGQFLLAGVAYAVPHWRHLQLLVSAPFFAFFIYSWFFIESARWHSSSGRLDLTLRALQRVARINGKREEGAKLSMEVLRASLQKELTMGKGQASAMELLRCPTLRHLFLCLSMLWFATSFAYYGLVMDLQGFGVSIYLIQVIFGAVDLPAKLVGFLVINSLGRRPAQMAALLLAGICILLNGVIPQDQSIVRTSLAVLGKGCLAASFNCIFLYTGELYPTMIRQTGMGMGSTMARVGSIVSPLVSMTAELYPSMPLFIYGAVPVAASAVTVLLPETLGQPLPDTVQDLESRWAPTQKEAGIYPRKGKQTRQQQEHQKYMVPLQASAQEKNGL


Experiments:
[1] = Human clearance and half life of tested drugs; assay type: in vivo
[2] = cited from earlier work
[3] = cited from earlier work; for T1/2 (pharmacologic half life): ref 44 (pravastatin: ref 45)
plasma proteins = settings: cited from earlier work; for Protein Binding (%): ref www.drugbank.ca; for bound to plasma proteins: PBUTs in plasma, ref 68 (IS, PCS), ref 69 (KA)
OAT1 [4] = settings: read-out: IC50 (uric acid uptake, OAT1); OAT1-expressing Flp-HEK293 cells; ref Sato et al. [58]; cited from earlier work
OAT1 [5] = target: T1, OAT1; test: OAT1-mediated fluorescein uptake inhibition assay in ciPTEC-OAT1; settings: for lowest drug concentration with statistically significant decrease (p<0.05) of % fluorescein uptake, with IS: co-incubation with IS; for lowest drug concentration with statistically significant decrease (p<0.05) of % fluorescein uptake, with IS / lowest drug concentration with statistically significant decrease (p<0.05) of % fluorescein uptake, with KA / lowest drug concentration with statistically significant decrease (p<0.05) of % fluorescein uptake, with PCS: reference = toxin alone; for lowest drug concentration with statistically significant decrease (p<0.05) of % fluorescein uptake, with KA: co-incubation with KA; for lowest drug concentration with statistically significant decrease (p<0.05) of % fluorescein uptake, with PCS: co-incubation with PCS; for IC50 at 10 min: human, ciPTEC-OAT1 mature monolayers, pH 7.4, probe fluorescein 1 µM
OAT1 [6] = target: T1, OAT1; settings: read-out: IC50 of uremic toxin in ciPTEC-OAT1 system; cited from earlier work
[7] = substrate: O=C1OC2(c3ccc(O)cc3Oc3cc(O)ccc32)c2ccccc21; test: cells, lysate or membranes; settings: pH 7.4; 37.0 °C
[8] = co-incubation with UTox, lowest drug concentration

| Renal Clearance (% of Total CL) [1] [%] | IC50 (OAT1 [5]) [µM] | Molecule | Therapeutic Concentrations ([2]; ref 44 (pravastatin: ref 45)) [µM] | Renal CL ([3]; human) [mL/min/kg] | T1/2 (pharmacologic half life) [3] | Protein Binding (%) (plasma proteins) | other results |
| --- | --- | --- | --- | --- | --- | --- | --- |
| 29 | 11.5 ± 3.5 | CCCCC(=O)N(Cc1ccc(-c2ccccc2-c2nnn[nH]2)cc1)[C@H](C(=O)O)C(C)C [Valsartan, valsartan] | 2 to 14 | 0.14 | 6–9 h | 94–97% | IC50 (OAT1 [4]): 16 µM; Percentage (%) Fluorescein Uptake at the Lowest Drug Concentration in the presence of UTox (OAT1 [5]): 24.7 ± 4.5% |
| – | – | O=C(O)c1cc(=O)c2ccccc2[nH]1 [Kynurenic acid, kynurenic acid] | – | – | – | – | bound to plasma proteins (plasma proteins): 70% |
| – | 2020 ± 465 | C[C@H](CS)C(=O)N1CCC[C@H]1C(=O)O [Captopril, captopril] | 0.2 to 5 | – | – | – | – |
| 11 | 8.6 ± 2.5 | CCCCc1nc(Cl)c(CO)n1Cc1ccc(-c2ccccc2-c2nn[nH]n2)cc1 [Losartan, losartan] | 0.5 to 1.5 | 0.9 | 1.5–2 h | 99% | IC50 (OAT1 [4]): 12 µM; lowest drug concentration with statistically significant decrease (p<0.05) of % fluorescein uptake, with IS (OAT1 [5]): 1 µM; lowest drug concentration with statistically significant decrease (p<0.05) of % fluorescein uptake, with KA (OAT1 [5]): 5 µM; lowest drug concentration with statistically significant decrease (p<0.05) of % fluorescein uptake, with PCS (OAT1 [5]): 1 µM; Percentage (%) Fluorescein Uptake at the Lowest Drug Concentration in the presence of UTox (OAT1 [5]; [8]): 23.5 ± 3.5%; IC50 at 10 min (OAT1 [5]): 3.1 ± 0.7 µM |
| 45 | 13.8 ± 8.5 | CC[C@H](C)C(=O)O[C@H]1C[C@H](O)C=C2C=C[C@H](C)[C@H](CC[C@@H](O)C[C@@H](O)CC(=O)O)[C@H]21 [Pravastatin, pravastatin] | 0.08 to 0.3 | 6.3 | 1–2.5 h | 60% | Therapeutic Concentrations ([2]; second value in cell): 0.43 µM; lowest drug concentration with statistically significant decrease (p<0.05) of % fluorescein uptake, with IS (OAT1 [5]): 5 µM; lowest drug concentration with statistically significant decrease (p<0.05) of % fluorescein uptake, with KA (OAT1 [5]): 5 µM; lowest drug concentration with statistically significant decrease (p<0.05) of % fluorescein uptake, with PCS (OAT1 [5]): 1 µM; Percentage (%) Fluorescein Uptake at the Lowest Drug Concentration in the presence of UTox (OAT1 [5]; [8]): 27.8 ± 2.6%; IC50 at 10 min (OAT1 [5]): 23.2 ± 8.3 µM |
| – | – | O=C(O)[C@H]1O[C@@H](Oc2c[nH]c3ccccc23)[C@H](O)[C@@H](O)[C@@H]1O [Indoxyl-β-D-glucoronide, indoxyl-β-D-glucoronide] | – | – | – | – | IC50 (OAT1 [6]): 492 ± 68 µM |
| 100 | – | C[C@H](N[C@@H](CCc1ccccc1)C(=O)O)C(=O)N1CCC[C@H]1C(=O)O [Enalaprilate, enalaprilate] | 0.04 to 0.4 | 1.6 | 8–11 h | 50% | Total CL ([3]; human): 1.6 mL/min/kg; inhibition of human OAT1 (in words) (OAT1 [5]; captopril and enalaprilate only at high concentrations with no therapeutic relevance): inhibited |
| 97 | 888 ± 198 | CN/C(=N/CCSCc1nc[nH]c1C)NC#N [Cimetidine] | 1 to 16 | 7.9 | 1.5–4 h | 20% | – |
| 13 | – | CCC(C)(C)C(=O)O[C@H]1C[C@@H](C)C=C2C=C[C@H](C)[C@H](CC[C@@H]3C[C@@H](O)CC(=O)O3)[C@H]21 [Simvastatin, simvastatin] | – | – | 2 h | – | – |
| – | – | O=S(=O)(O)Oc1c[nH]c2ccccc12 [Indoxyl sulfate] | – | – | – | – | bound to plasma proteins (plasma proteins): 90–95% |
| – | – | NS(=O)(=O)c1cc(C(=O)O)c(NCc2ccco2)cc1Cl [Furosemide, furosemide] | 6 to 30 | – | – | – | – |
| – | – | Cc1ccc(OS(=O)(=O)O)cc1 [p-Cresylsulfate, p-cresylsulfate] | – | – | – | – | IC50 (OAT1 [6]): 79 ± 14 µM; bound to plasma proteins (plasma proteins): 90–95% |
| – | – | Cc1ccc(O[C@@H]2O[C@H](C(=O)O)[C@@H](O)[C@H](O)[C@H]2O)cc1 [p-Cresylglucuronide, p-cresylglucuronide] | – | – | – | – | IC50 (OAT1 [6]): 2650 ± 922 µM |
| – | – | OAT1 (Homo sapiens) (protein) MAFNDLLQQVGGVGRFQQIQVTLVVLPLLLMASHNTLQNFTAAIPTHHCRPPADANLSKNGGLEVWLPRDRQGQPESCLRFTSPQWGLPFLNGTEANGTGATEPCTDGWIYDNSTFPSTIVTEWDLVCSHRALRQLAQSLYMVGVLLGAMVFGYLADRLGRRKVLILNYLQTAVSGTCAAFAPNFPIYCAFRLLSGMALAGISLNCMTLNVEWMPIHTRACVGTLIGYVYSLGQFLLAGVAYAVPHWRHLQLLVSAPFFAFFIYSWFFIESARWHSSSGRLDLTLRALQRVARINGKREEGAKLSMEVLRASLQKELTMGKGQASAMELLRCPTLRHLFLCLSMLWFATSFAYYGLVMDLQGFGVSIYLIQVIFGAVDLPAKLVGFLVINSLGRRPAQMAALLLAGICILLNGVIPQDQSIVRTSLAVLGKGCLAASFNCIFLYTGELYPTMIRQTGMGMGSTMARVGSIVSPLVSMTAELYPSMPLFIYGAVPVAASAVTVLLPETLGQPLPDTVQDLESRWAPTQKEAGIYPRKGKQTRQQQEHQKYMVPLQASAQEKNGL | – | – | – | – | Km [7]: 0.93 ± 0.09 µM |

| Molecule | Renal Clearance (% of Total CL) [1] [%] | IC50 (OAT1 [5]) [µM] | Therapeutic Concentrations ([2]; ref 44 (pravastatin: ref 45)) [µM] | Renal CL ([3]; human) [mL/min/kg] | T1/2 (pharmacologic half life) [3] | Protein Binding (%) (plasma proteins) | other results |
| --- | --- | --- | --- | --- | --- | --- | --- |
| NCCCC[C@H](N[C@@H](CCc1ccccc1)C(=O)O)C(=O)N1CCC[C@H]1C(=O)O [Lisinopril, lisinopril] | 100 | – | 0.01 to 0.16 | – | – | negligible | – |
